Reference: patent US20120071471A1, “NOVEL BENZOXAZINONE DERIVATIVES USEFUL FOR THE TREATMENT OF CNS DISORDERS” (NEUROSEARCH A/S, priority 2009, published 2012)

What was measured:
[1] = De Marchi et al., Journal of Pharmaceutical Sciences 1971 60 (11); cited from earlier work
female NMRI mice = experiment: 6 Hz corneal stimulation psychomotor seizure model (anticonvulsant properties); type: in vivo; details: Mus musculus, 32 mA, 3 s corneal stimulation, N=8/group, read-out: ED50 (dose that would give a 50% protection from seizures)
Experimental: The evaluation of the anticonvulsant properties was carried out in female NMRI mice (20-25 g, Taconic, Denmark). The mice were housed in groups (8 per cage according to weight) with food and water available ad libitum The environment was temperature (20±2° C.) and humidity (55±15%) controlled, and consisted of a 12:12 h light-dark cycle (lights on 06:00 h). The experiments were performed according to the Danish Committee for Experiments on Animals. Psychomotor seizures were induced via corneal stimulation (6 Hz, 0.2 ms rectangular pulses at 32 mA for 3 s) using a Grass S48 stimulator, constant current unit (CCU1) and isolation unit (SIU5), all driven by a stimulus generator (Master-8, AMPI, Israel).
The pads of the corneal stimulator were soaked in 0.9% saline. The mice were restrained during corneal stimulation and released immediately after and observed for the presence or absence of seizure activity.
The duration of any of these seizure variables is 10-75 seconds. In the presence of any of the seizure variables the mice was labelled 0% protection, and if none of the above, the mice was labelled 100% protection.
For screening purposes, the test compound was tested at 1 dose at 1 time-point. In the case of protection of 3 or more out of 8 mice, the compound were further evaluated in dose response (N=8/group). […]

| SMILES | anticonvulsant activity [1] | ED50 (female NMRI mice) [mg/kg] | melting point [°C] |
| --- | --- | --- | --- |
| NC(=O)CN1C(=O)OCc2ccccc21 [2-(2-oxo-4H-benzo[d][1,3]oxazin-1-yl)-acetamide] | biologically inactive | – | – |
| NC(=O)CN1C(=O)OCc2cc(Br)ccc21 [Compound 1, 2-(6-bromo-2-oxo-4H-3,1-benzoxazin-1-yl)acetamide] | – | 13 | 253.4 to 254.3 |
